This note sets out measurements from ChEMBL document CHEMBL1132741, “Novel antifungals based on 4-substituted imidazole: a combinatorial chemistry approach to lead discovery and optimization” (Bioorg Med Chem Lett, 2000).

As usually defined, the MIC is the least concentration at which growth counts as inhibited. Lower therefore signals greater potency. One may read the IC50 as the concentration needed to halve the response being measured. Low values mean greater potency, high ones weaker potency.

≈ marks a conversion by molar mass, not a printed value. Where only a bound is given, the exact number is not on record here.

Test [1] can be described thus: Antifungal activity against molds expressed as negative log (pLAD value). It is filed as functional, mould.
The next test relates to Saccharomyces cerevisiae. Description: Antifungal activity against yeast expressed as negative log (pLAD value). It is filed as functional.
For the next test, the system named is Candida tropicalis. Description: Minimum inhibitory concentration of compound for antifungal activity against Candida tropicalis. In kind it is functional.
Test [2] relates to Candida albicans. Nature of the test: Minimum inhibitory concentration of compound for antifungal activity against Candida albicans 4. It is filed as functional.
For a further test, the system named is Pichia kudriavzevii. Description: Minimum inhibitory concentration of compound for antifungal activity against Candida krusei. It is filed as functional.
For another test, the system named is Candida parapsilosis. Nature of the test: Minimum inhibitory concentration of compound for antifungal activity against Candida parapsilosis. In kind it is functional. Conditions: Lodderomyces parapsilosis.
For a further test, the system named is Microsporum canis. Nature of the test: Minimum inhibitory concentration of compound for antifungal activity against Mucosporam canis. In kind it is functional.
Another test relates to Trichophyton benhamiae. Nature of the test: Minimum inhibitory concentration of compound for antifungal activity against Trichophyton mentagrophytes. In kind it is functional, Arthroderma benhamiae.
For another test, the system named is Sporothrix schenckii. Description: Minimum inhibitory concentration of compound for antifungal activity against Sporothrix schenck ii. In kind it is functional.
Test [3] relates to Candida albicans. Description: Minimum inhibitory concentration of compound for antifungal activity against Candida albicans 1. In kind it is functional.
The test system of a further test is Nakaseomyces glabratus. Nature of the test: Minimum inhibitory concentration of compound for antifungal activity against Candida glabrata. In kind it is functional.
In the next test the test system is Cryptococcus neoformans. Description: Minimum inhibitory concentration of compound for antifungal activity against Cryptococcus neoformans. It is filed as functional.
In test [4] the test system is Candida albicans. Nature of the test: Minimum inhibitory concentration of compound for antifungal activity against Candida albicans 2. In kind it is functional.
Another test deals with Kluyveromyces marxianus. Nature of the test: Minimum inhibitory concentration of compound for antifungal activity against Candida kefyr. In kind it is functional.
A further test concerns Trichophyton rubrum. Description: Minimum inhibitory concentration of compound for antifungal activity against Trichophyton rubrum. In kind it is functional.
The subject of another test is Aspergillus fumigatus. Nature of the test: Minimum inhibitory concentration of compound for antifungal activity against Aspergillus fumigatus. It is filed as functional.
Test [5] deals with Candida albicans. Description: Inhibition of ergosterol synthesis as measured in Candida albicans subcellular screen. It is filed as functional.

In the case of `CCCCOc1ccc(S(=O)(=O)N(Cc2c[nH]cn2)[C@H](C)C2CCCCC2)cc1`, the pLADm in test [1] is 4.6. This compound gave a pLADy with Saccharomyces cerevisiae of 6.13.

For the compound `CCCCOc1ccc(S(=O)(=O)N(Cc2c[nH]cn2)[C@@H](C)C2CCCCC2)cc1`, in [1], the pLADm came out at 5. This compound gave a pLADy with Saccharomyces cerevisiae of 5.9.

On to `CCCCOc1ccc(S(=O)(=O)N(CCc2ccc(F)cc2)CC2=CNC(C)N2)cc1` (centres undefined), for which the pLADm in [1] came to 3.92. The compound also yielded a pLADy with Saccharomyces cerevisiae of 3.95.

As to `CCCCOc1ccc(S(=O)(=O)N(Cc2c[nH]cn2)C(CC)C2CCCCC2)cc1` (centres undefined), the MIC was 1 µM (≈ 0.434 µg/mL) with Candida tropicalis; < 0.1 µM with Candida albicans [2]; 1 µM (≈ 0.434 µg/mL) with Pichia kudriavzevii; < 0.1 µM in the test with Candida parapsilosis; 1 µM (≈ 0.434 µg/mL) in the test on Microsporum canis; 10 µM (≈ 4.34 µg/mL) against Trichophyton benhamiae. In addition, the MIC in the test on Sporothrix schenckii was > 10 µM; with Candida albicans [3], > 10 µM; in the test with Nakaseomyces glabratus, 1 µM (≈ 0.434 µg/mL); against Cryptococcus neoformans, 1 µM (≈ 0.434 µg/mL); in the test on Candida albicans [4] it was < 0.1 µM; in the test with Kluyveromyces marxianus, < 0.1 µM. In addition, the MIC against Trichophyton rubrum was 1 µM (≈ 0.434 µg/mL); against Aspergillus fumigatus, > 10 µM. Moreover, the pLADm in [1] is 5. Further, in the test with Saccharomyces cerevisiae, the pLADy is reported as >6.8.

`CCCCOc1ccc(S(=O)(=O)N(CC2CCCCC2)C(C)c2c[nH]cn2)cc1` (centres undefined): in test [1], the pLADm turned out to be 4. In the test on Saccharomyces cerevisiae, this compound gave a pLADy of 6.3.

In [1], `CCCCOc1ccc(S(=O)(=O)N(Cc2c[nH]cn2)CC2CCCCC2)cc1` had a pLADm of 3.6. Further, the pLADy in the test on Saccharomyces cerevisiae turned out to be 6.1.

With `CC(C)C(C(C)C)N(Cc1c[nH]cn1)S(=O)(=O)c1cc(Cl)sc1Cl`, the pLADm in test [1] is on record as 4.5. Also, the pLADy with Saccharomyces cerevisiae came out at 6.3. Further, in the test with Candida albicans [5], inhibition was half-maximal at 71 nM (IC50).

For `CCCCOc1ccc(S(=O)(=O)N(CC2CCCCC2)C(c2ccccc2)c2c[nH]cn2)cc1` (centres undefined), in test [1], the pLADm was 4. This compound also displayed a pLADy with Saccharomyces cerevisiae of 5.1.

`CCCCOc1ccc(S(=O)(=O)N(CCc2ccc(F)cc2)Cc2nc[nH]n2)cc1` showed a pLADm in test [1] of 3.92. The pLADy in the test on Saccharomyces cerevisiae came out at 3.95.

With `CCCCCCN(Cc1c[nH]cn1)S(=O)(=O)c1ccc(OCCCC)cc1`, the pLADm in test [1] turned out to be 5.2. This compound gave a pLADy in the test with Saccharomyces cerevisiae of 6.1. Besides, the IC50 with Candida albicans [5] came out at 76 nM.

`CCCCOc1ccc(S(=O)(=O)N(CCCCc2ccccc2)Cc2c[nH]cn2)cc1`: the pLADm in [1] amounted to 5.2. The pLADy in the test on Saccharomyces cerevisiae is given as 5.4. In the test on Candida albicans [5], this compound had an IC50 of 27 nM.

For the compound `CCCCOc1ccc(S(=O)(=O)N(Cc2c[nH]cn2)C(C2CCCCC2)C2CCCCC2)cc1`, the pLADm in [1] stood at 4. For the same compound, in the test on Saccharomyces cerevisiae, the pLADy was 5.

Regarding `CCCCOc1ccc(S(=O)(=O)N(CCc2ccc(F)cc2)Cc2c[nH]cn2)cc1`, the MIC is < 0.1 µM with Candida tropicalis; 10 µM (≈ 4.32 µg/mL) with Candida albicans [2]; > 10 µM with Pichia kudriavzevii; 1 µM (≈ 0.432 µg/mL) in the test on Candida parapsilosis; 10 µM (≈ 4.32 µg/mL) against Microsporum canis; > 10 µM in the test on Trichophyton benhamiae. In addition, the MIC is > 10 µM against Sporothrix schenckii; > 10 µM against Candida albicans [3]; 10 µM (≈ 4.32 µg/mL) in the test on Nakaseomyces glabratus; 1 µM (≈ 0.432 µg/mL) with Cryptococcus neoformans; < 0.1 µM with Candida albicans [4]; < 0.1 µM with Kluyveromyces marxianus. Also, the MIC against Trichophyton rubrum was 1 µM (≈ 0.432 µg/mL); against Aspergillus fumigatus, > 10 µM. The compound also showed a pLADm in [1] of 4.6. Further, in the test on Saccharomyces cerevisiae, the pLADy came to 6.2. Also, half-maximal inhibition in the test on Candida albicans [5] (IC50) required 26 nM.

As for `CCCCOc1ccc(S(=O)(=O)N(Cc2c[nH]cn2)C(C(C)C)C(C)C)cc1`, the MIC was 0.1 µM (≈ 0.0408 µg/mL) in the test with Candida tropicalis; < 0.1 µM with Candida albicans [2]; 10 µM (≈ 4.08 µg/mL) in the test with Pichia kudriavzevii; 0.1 µM (≈ 0.0408 µg/mL) in the test on Candida parapsilosis; 1 µM (≈ 0.408 µg/mL) against Microsporum canis; 10 µM (≈ 4.08 µg/mL) against Trichophyton benhamiae. The MIC with Sporothrix schenckii is > 10 µM; with Candida albicans [3] it was > 10 µM; against Nakaseomyces glabratus it was 10 µM (≈ 4.08 µg/mL); against Cryptococcus neoformans, 1 µM (≈ 0.408 µg/mL); in the test on Candida albicans [4], < 0.1 µM; with Kluyveromyces marxianus, < 0.1 µM. The values for the MIC with Trichophyton rubrum and against Aspergillus fumigatus were 1 µM (≈ 0.408 µg/mL) and > 10 µM, respectively. This compound yielded a pLADm in test [1] of 5. Further, the pLADy in the test with Saccharomyces cerevisiae is on record as 6.7. This compound registered an IC50 with Candida albicans [5] of 73 nM.

Turning to `CCCCOc1ccc(S(=O)(=O)N(CCc2ccccc2F)Cc2[nH]cnc2C)cc1`, the pLADm in [1] is <4. In addition, the pLADy in the test on Saccharomyces cerevisiae is on record as <4.

For the compound `CCCCOc1ccc(S(=O)(=O)N(Cc2cncn2C)C(C)C2CCCCC2)cc1` (centres undefined), the MIC worked out at 0.1 µM (≈ 0.0434 µg/mL) against Candida tropicalis; 10 µM (≈ 4.34 µg/mL) with Candida albicans [2]; 1 µM (≈ 0.434 µg/mL) with Pichia kudriavzevii; 0.1 µM (≈ 0.0434 µg/mL) against Candida parapsilosis; 1 µM (≈ 0.434 µg/mL) against Microsporum canis; 10 µM (≈ 4.34 µg/mL) with Trichophyton benhamiae. The MIC against Sporothrix schenckii is > 10 µM; against Candida albicans [3], > 10 µM; with Nakaseomyces glabratus, 1 µM (≈ 0.434 µg/mL); with Cryptococcus neoformans, 1 µM (≈ 0.434 µg/mL); against Candida albicans [4], < 0.1 µM; against Kluyveromyces marxianus, < 0.1 µM. For the same compound, the MIC is 1 µM (≈ 0.434 µg/mL) with Trichophyton rubrum and > 10 µM with Aspergillus fumigatus. The pLADm in test [1] amounted to 4.8. In addition, the pLADy in the test with Saccharomyces cerevisiae came out at 6.6.

On to `Brc1ccc(CCN(Cc2ccc(-c3ccccc3)cc2)Cc2c[nH]cn2)cc1`, for which the pLADm in test [1] was 5.8. The pLADy in the test on Saccharomyces cerevisiae stood at 4.9. This compound yielded an IC50 in the test on Candida albicans [5] of 1240 nM.

With `CCCCCc1ccc(S(=O)(=O)N(CCC(C)C)Cc2c[nH]cn2)cc1`, in test [1], the pLADm worked out at 5. In the test on Saccharomyces cerevisiae, this compound yielded a pLADy of 6.4. For the same compound, the IC50 in the test with Candida albicans [5] was 120 nM.

`CCCCOc1ccc(S(=O)(=O)N(CCc2cccs2)Cc2c[nH]cn2)cc1` yielded a pLADm in [1] of 4.4. In addition, in the test with Saccharomyces cerevisiae, the pLADy was determined as 6.5. For the same compound, 11 nM corresponded to half-maximal inhibition with Candida albicans [5] (IC50).

As for `OC(Cn1cncn1)(Cn1cncn1)c1ccc(F)cc1F` [FLUCONAZOLE], the MIC against Candida tropicalis was > 10 µM; in the test on Candida albicans [2], 1 µM (≈ 0.306 µg/mL); with Pichia kudriavzevii it was > 10 µM; in the test on Candida parapsilosis, 10 µM (≈ 3.06 µg/mL); against Microsporum canis, 10 µM (≈ 3.06 µg/mL); with Trichophyton benhamiae, > 10 µM. Also, the MIC with Sporothrix schenckii is > 10 µM; in the test with Candida albicans [3], > 10 µM; in the test with Nakaseomyces glabratus, > 10 µM; against Cryptococcus neoformans it was 10 µM (≈ 3.06 µg/mL); against Candida albicans [4], 1 µM (≈ 0.306 µg/mL); against Kluyveromyces marxianus, 1 µM (≈ 0.306 µg/mL). For the same compound, the MIC against Trichophyton rubrum is 10 µM (≈ 3.06 µg/mL); with Aspergillus fumigatus, > 10 µM.

For `CCC(C)n1ncn(-c2ccc(N3CCN(c4ccc(OCC5COC(Cn6cncn6)(c6ccc(Cl)cc6Cl)O5)cc4)CC3)cc2)c1=O` (centres undefined) [ITRACONAZOLE], the MIC in the test with Candida tropicalis is 0.1 µM (≈ 0.0706 µg/mL); in the test with Candida albicans [2], > 10 µM; against Pichia kudriavzevii, 1 µM (≈ 0.706 µg/mL); in the test with Candida parapsilosis it was < 0.1 µM; with Microsporum canis, < 0.1 µM; in the test on Trichophyton benhamiae, 0.1 µM (≈ 0.0706 µg/mL). The MIC against Sporothrix schenckii is 10 µM (≈ 7.06 µg/mL); with Candida albicans [3], > 10 µM; in the test on Nakaseomyces glabratus, 1 µM (≈ 0.706 µg/mL); in the test with Cryptococcus neoformans, < 0.1 µM; against Candida albicans [4] it was < 0.1 µM; against Kluyveromyces marxianus, < 0.1 µM. Further, the MIC against Trichophyton rubrum was < 0.1 µM; against Aspergillus fumigatus, 1 µM (≈ 0.706 µg/mL).

In the case of `CC(=O)N1CCN(c2ccc(OC[C@H]3CO[C@](Cn4ccnc4)(c4ccc(Cl)cc4Cl)O3)cc2)CC1` [KETOCONAZOLE], the MIC against Candida tropicalis was 10 µM (≈ 5.31 µg/mL); with Candida albicans [2], 10 µM (≈ 5.31 µg/mL); with Pichia kudriavzevii it was 1 µM (≈ 0.531 µg/mL); against Candida parapsilosis it was 0.1 µM (≈ 0.0531 µg/mL); against Microsporum canis, 1 µM (≈ 0.531 µg/mL); in the test on Trichophyton benhamiae it was 10 µM (≈ 5.31 µg/mL). The MIC in the test with Sporothrix schenckii was 10 µM (≈ 5.31 µg/mL); in the test with Candida albicans [3], > 10 µM; in the test with Nakaseomyces glabratus, 10 µM (≈ 5.31 µg/mL); in the test with Cryptococcus neoformans, 0.1 µM (≈ 0.0531 µg/mL); with Candida albicans [4], 0.1 µM (≈ 0.0531 µg/mL); in the test with Kluyveromyces marxianus it was < 0.1 µM. The results for the MIC with Trichophyton rubrum and against Aspergillus fumigatus were 0.1 µM (≈ 0.0531 µg/mL) and 10 µM (≈ 5.31 µg/mL), respectively.
